Test results taken from patent US20020137929A1, “1 - (3-heterocyclylphenyl) isothiourea, -isourea, -guanidine and -amidine herbicidal agents” (Intellectual Property Department, BASF Aktiengesellschaft, priority 1998, published 2002).

Columns and labels:
[1] = system: ECHORC (Watergrass (Calif.)); experiment: Preemergence weed control under flooded paddy conditions; format: in vivo, Echinochloa oryzoides; conditions: rated 3-4 weeks after treatment
Summary of the method: (§1)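 Visual injury scored 0-9 against control three to four weeks post-treatment, greenhouse-grown. Application: acetone/water (50/50) solutions dosed directly into flood water (1.5-3 cm over silt loam, planted top 0.5 cm), roughly 0.0313 to 0.500 kg/ha active ingredient.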

GALAP (Galium) = experiment: Postemergence herbicidal evaluation; format: in vivo, Galium aparine; conditions: postemergence
Summary of the method: (§2)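 Rate range approx. 0.0156–0.500 kg/ha. Foliar application at 40 psi to ~2-week seedlings; surfactant 0.5% TWEEN 20 in 50/50 acetone/water. Evaluation 4–5 wk post-treatment by 0–9 visual injury score, means of replicate tests.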

[2] = system: CHEAL (Lambsquarters, Common); experiment: Preemergence herbicidal evaluation; format: in vivo, Chenopodium album; conditions: rated 4-5 weeks after treatment
Summary of the method: (§3)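 Visual 0-9 rating vs control (stand, vigor, malformation, size, chlorosis, overall appearance), scored 4-5 wk after spraying. Seeded soil cups were treated preemergence with compound in aqueous acetone, ~0.0156-0.500 kg/ha equivalent.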

ORYSAT (Rice, Tebonnet) = experiment: Preemergence herbicidal evaluation; format: in vivo, Oryza sativa, (L.) Tebonnet; conditions: rated 4-5 weeks after treatment
Summary of the method: as §3

ZEAMX (Corn, Field) [3] = experiment: Preemergence herbicidal evaluation; format: in vivo, Zea mays; conditions: rated 4-5 weeks after treatment
Summary of the method: as §3

ZEAMX (Corn, Field) [4] = experiment: Postemergence herbicidal evaluation; format: in vivo, Zea mays; conditions: postemergence
Summary of the method: as §2

CYPSE (Flatsedge) = experiment: Preemergence weed control under flooded paddy conditions; format: in vivo, Cyperus serotinus; conditions: rated 3-4 weeks after treatment
Summary of the method: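 Herbicidal effect is scored visually on a 0-9 scale against an untreated control, three to four weeks after compounds are pipetted into the flood water (1.5 to 3 cm deep) over seeds planted in silt loam at 0.5 cm depth. Rates: about 0.0313 to 0.500 kg/ha.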

CASOB (Sicklepod) = experiment: Postemergence herbicidal evaluation; format: in vivo, Cassia obtusifolia; conditions: postemergence
Summary of the method: as §2

[5] = system: TRZAWR (Wheat, Winter, cv Riband); experiment: Preemergence herbicidal evaluation; format: in vivo, Triticum aestivum; conditions: rated 4-5 weeks after treatment
Summary of the method: as §3

AMBEL (Ragweed, Common) = experiment: Preemergence herbicidal evaluation; format: in vivo, Ambrosia artemisifolia; conditions: rated 4-5 weeks after treatment
Summary of the method: as §3

CYPIR (Rice Flatsedge) = experiment: Preemergence weed control under flooded paddy conditions; format: in vivo, Cyperus iria; conditions: rated 3-4 weeks after treatment
Summary of the method: as §1

[6] = system: IPOHE (Morningglory, Ivyleaf); experiment: Preemergence herbicidal evaluation; format: in vivo, Ipomoea hederacea; conditions: rated 4-5 weeks after treatment
Summary of the method: as §3

[7] = rate 0.0313 kg/ha, rating scale 0-9
[8] = rate 0.0625 kg/ha, rating scale 0-9
[9] = rate 0.1250 kg/ha, rating scale 0-9
[10] = rate 0.2500 kg/ha, rating scale 0-9

Cn1c(C(F)(F)F)cc(=O)n(-c2cc(N=C3SCC(=O)N3Cc3ccncc3)c(Cl)cc2F)c1=O [Compound 133, 3-{4-Chloro-2-fluoro-5-{[4-oxo-3-(4-pyridylmethyl)-2-thiazolidinylidene]amino}phenyl}-1-methyl-6-(trifluoromethyl)-2,4(1H,3H)-pyrimidinedione]
herbicidal effect rating, ECHORC ([1]; 0.0313 kg/ha): 6.0
herbicidal effect rating, ECHORC ([1]; 0.0625 kg/ha): 6.0
herbicidal effect rating, ECHORC ([1]; 0.1250 kg/ha): 9.0
herbicidal effect rating, ECHORC ([1]; 0.2500 kg/ha): 9.0
Herbicidal rating GALAP (GALAP (Galium); rate 0.0156 kg/ha): 0.0
Herbicidal rating GALAP (GALAP (Galium); rate 0.0313 kg/ha): 2.0
Herbicidal rating GALAP (GALAP (Galium); rate 0.0625 kg/ha): 3.0
Preemergence herbicidal rating CHEAL [2, 7]: 9.0
Preemergence herbicidal rating CHEAL [2, 8]: 9.0
Preemergence herbicidal rating CHEAL [2, 9]: 9.0
Preemergence herbicidal rating CHEAL [2, 10]: 9.0
Preemergence herbicidal rating ORYSAT (ORYSAT (Rice, Tebonnet); [7]): 0.0
Preemergence herbicidal rating ORYSAT (ORYSAT (Rice, Tebonnet); [8]): 0.0
Preemergence herbicidal rating ORYSAT (ORYSAT (Rice, Tebonnet); [9]): 0.0
Preemergence herbicidal rating ORYSAT (ORYSAT (Rice, Tebonnet); [10]): 0.0
Preemergence herbicidal rating ZEAMX (ZEAMX (Corn, Field) [3]; [7]): 0.0
Preemergence herbicidal rating ZEAMX (ZEAMX (Corn, Field) [3]; [8]): 0.0
Preemergence herbicidal rating ZEAMX (ZEAMX (Corn, Field) [3]; [9]): 0.0
Preemergence herbicidal rating ZEAMX (ZEAMX (Corn, Field) [3]; [10]): 0.0
Herbicidal rating ZEAMX (ZEAMX (Corn, Field) [4]; rate 0.0156 kg/ha): 4.0
Herbicidal rating ZEAMX (ZEAMX (Corn, Field) [4]; rate 0.0313 kg/ha): 4.0
Herbicidal rating ZEAMX (ZEAMX (Corn, Field) [4]; rate 0.0625 kg/ha): 4.0
herbicidal effect rating, CYPSE (CYPSE (Flatsedge); 0.0313 kg/ha): 0.0
herbicidal effect rating, CYPSE (CYPSE (Flatsedge); 0.0625 kg/ha): 0.0
herbicidal effect rating, CYPSE (CYPSE (Flatsedge); 0.1250 kg/ha): 0.0
herbicidal effect rating, CYPSE (CYPSE (Flatsedge); 0.2500 kg/ha): 1.0
Herbicidal rating CASOB (CASOB (Sicklepod); rate 0.0156 kg/ha): 0.0
Herbicidal rating CASOB (CASOB (Sicklepod); rate 0.0313 kg/ha): 1.0
Herbicidal rating CASOB (CASOB (Sicklepod); rate 0.0625 kg/ha): 3.0
Preemergence herbicidal rating TRZAWR [5, 7]: 0.0
Preemergence herbicidal rating TRZAWR [5, 8]: 0.0
Preemergence herbicidal rating TRZAWR [5, 9]: 0.0
Preemergence herbicidal rating TRZAWR [5, 10]: 0.0
Preemergence herbicidal rating AMBEL (AMBEL (Ragweed, Common); [7]): 0.0
Preemergence herbicidal rating AMBEL (AMBEL (Ragweed, Common); [8]): 0.0
Preemergence herbicidal rating AMBEL (AMBEL (Ragweed, Common); [9]): 0.0
Preemergence herbicidal rating AMBEL (AMBEL (Ragweed, Common); [10]): 1.0
herbicidal effect rating, CYPIR (CYPIR (Rice Flatsedge); 0.0313 kg/ha): 0.0
herbicidal effect rating, CYPIR (CYPIR (Rice Flatsedge); 0.0625 kg/ha): 0.0
herbicidal effect rating, CYPIR (CYPIR (Rice Flatsedge); 0.1250 kg/ha): 2.0
herbicidal effect rating, CYPIR (CYPIR (Rice Flatsedge); 0.2500 kg/ha): 3.0
Preemergence herbicidal rating IPOHE [6, 7]: 0.0
Preemergence herbicidal rating IPOHE [6, 8]: 0.0
Preemergence herbicidal rating IPOHE [6, 9]: 0.0
Preemergence herbicidal rating IPOHE [6, 10]: 1.0

Cn1c(C(F)(F)F)cc(=O)n(-c2cc(N=C3SCC(=O)N3C3CCC3)c(Cl)cc2F)c1=O [Compound 168, 3-{4-Chloro-5-[(3-cyclobutyl-4-oxo-2-thiazolidinylidene)amino]-2-fluorophenyl}-1-methyl-6-(trifluoromethyl)-2,4(1H,3H)-pyrimidinedione]
herbicidal effect rating, ECHORC ([1]; 0.0313 kg/ha): 0.0
herbicidal effect rating, ECHORC ([1]; 0.0625 kg/ha): 0.0
herbicidal effect rating, ECHORC ([1]; 0.1250 kg/ha): 0.0
herbicidal effect rating, ECHORC ([1]; 0.2500 kg/ha): 0.0
Herbicidal rating GALAP (GALAP (Galium); rate 0.0156 kg/ha): 0.0
Herbicidal rating GALAP (GALAP (Galium); rate 0.0313 kg/ha): 1.0
Herbicidal rating GALAP (GALAP (Galium); rate 0.0625 kg/ha): 3.0
Preemergence herbicidal rating CHEAL ([2]; 0.0156 kg/ha): 3.0
Preemergence herbicidal rating CHEAL ([2]; 0.0313 kg/ha): 9.0
Preemergence herbicidal rating CHEAL ([2]; 0.0625 kg/ha): 9.0
Preemergence herbicidal rating CHEAL ([2]; 0.1250 kg/ha): 9.0
Preemergence herbicidal rating CHEAL ([2]; 0.2500 kg/ha): 9.0
Preemergence herbicidal rating ORYSAT (ORYSAT (Rice, Tebonnet); 0.0156 kg/ha): 0.0
Preemergence herbicidal rating ORYSAT (ORYSAT (Rice, Tebonnet); 0.0313 kg/ha): 0.0
Preemergence herbicidal rating ORYSAT (ORYSAT (Rice, Tebonnet); 0.0625 kg/ha): 0.0
Preemergence herbicidal rating ORYSAT (ORYSAT (Rice, Tebonnet); 0.1250 kg/ha): 0.0
Preemergence herbicidal rating ORYSAT (ORYSAT (Rice, Tebonnet); 0.2500 kg/ha): 0.0
Preemergence herbicidal rating ZEAMX (ZEAMX (Corn, Field) [3]; 0.0156 kg/ha): 0.0
Preemergence herbicidal rating ZEAMX (ZEAMX (Corn, Field) [3]; 0.0313 kg/ha): 0.0
Preemergence herbicidal rating ZEAMX (ZEAMX (Corn, Field) [3]; 0.0625 kg/ha): 0.0
Preemergence herbicidal rating ZEAMX (ZEAMX (Corn, Field) [3]; 0.1250 kg/ha): 0.0
Preemergence herbicidal rating ZEAMX (ZEAMX (Corn, Field) [3]; 0.2500 kg/ha): 0.0
Herbicidal rating ZEAMX (ZEAMX (Corn, Field) [4]; rate 0.0156 kg/ha): 4.5
Herbicidal rating ZEAMX (ZEAMX (Corn, Field) [4]; rate 0.0313 kg/ha): 4.5
Herbicidal rating ZEAMX (ZEAMX (Corn, Field) [4]; rate 0.0625 kg/ha): 7.0
herbicidal effect rating, CYPSE (CYPSE (Flatsedge); 0.0313 kg/ha): 0.0
herbicidal effect rating, CYPSE (CYPSE (Flatsedge); 0.0625 kg/ha): 0.0
herbicidal effect rating, CYPSE (CYPSE (Flatsedge); 0.1250 kg/ha): 0.0
Herbicidal rating CASOB (CASOB (Sicklepod); rate 0.0156 kg/ha): 0.0
Herbicidal rating CASOB (CASOB (Sicklepod); rate 0.0313 kg/ha): 0.0
Herbicidal rating CASOB (CASOB (Sicklepod); rate 0.0625 kg/ha): 2.0
Preemergence herbicidal rating TRZAWR ([5]; 0.0156 kg/ha): 0.0
Preemergence herbicidal rating TRZAWR ([5]; 0.0313 kg/ha): 0.0
Preemergence herbicidal rating TRZAWR ([5]; 0.0625 kg/ha): 0.0
Preemergence herbicidal rating TRZAWR ([5]; 0.1250 kg/ha): 0.0
Preemergence herbicidal rating TRZAWR ([5]; 0.2500 kg/ha): 0.0
Preemergence herbicidal rating AMBEL (AMBEL (Ragweed, Common); 0.0156 kg/ha): 0.0
Preemergence herbicidal rating AMBEL (AMBEL (Ragweed, Common); 0.0313 kg/ha): 0.0
Preemergence herbicidal rating AMBEL (AMBEL (Ragweed, Common); 0.0625 kg/ha): 0.0
Preemergence herbicidal rating AMBEL (AMBEL (Ragweed, Common); 0.1250 kg/ha): 0.0
Preemergence herbicidal rating AMBEL (AMBEL (Ragweed, Common); 0.2500 kg/ha): 5.0
herbicidal effect rating, CYPIR (CYPIR (Rice Flatsedge); 0.0313 kg/ha): 0.0
herbicidal effect rating, CYPIR (CYPIR (Rice Flatsedge); 0.0625 kg/ha): 0.0
herbicidal effect rating, CYPIR (CYPIR (Rice Flatsedge); 0.1250 kg/ha): 0.0
herbicidal effect rating, CYPIR (CYPIR (Rice Flatsedge); 0.2500 kg/ha): 0.0
Preemergence herbicidal rating IPOHE ([6]; 0.0156 kg/ha): 0.0
Preemergence herbicidal rating IPOHE ([6]; 0.0313 kg/ha): 0.0
Preemergence herbicidal rating IPOHE ([6]; 0.0625 kg/ha): 0.0
Preemergence herbicidal rating IPOHE ([6]; 0.1250 kg/ha): 3.0
Preemergence herbicidal rating IPOHE ([6]; 0.2500 kg/ha): 4.0
